# Experimental data: ChEMBL document CHEMBL1811888, “Synthesis, biological activity and HPLC validation of 1,2,3,4-tetrahydroacridine derivatives as acetylcholinesterase inhibitors” (Eur J Med Chem, 2011)
# How the values were obtained:
# [1] = biological target: Acetylcholinesterase (Homo sapiens, UniProt P22303); test: Inhibition of AChE by Ellman's method
# [2] = biological target: Cholinesterase (Homo sapiens, UniProt P06276)
# Cholinesterase, sequence (P06276 whole entry): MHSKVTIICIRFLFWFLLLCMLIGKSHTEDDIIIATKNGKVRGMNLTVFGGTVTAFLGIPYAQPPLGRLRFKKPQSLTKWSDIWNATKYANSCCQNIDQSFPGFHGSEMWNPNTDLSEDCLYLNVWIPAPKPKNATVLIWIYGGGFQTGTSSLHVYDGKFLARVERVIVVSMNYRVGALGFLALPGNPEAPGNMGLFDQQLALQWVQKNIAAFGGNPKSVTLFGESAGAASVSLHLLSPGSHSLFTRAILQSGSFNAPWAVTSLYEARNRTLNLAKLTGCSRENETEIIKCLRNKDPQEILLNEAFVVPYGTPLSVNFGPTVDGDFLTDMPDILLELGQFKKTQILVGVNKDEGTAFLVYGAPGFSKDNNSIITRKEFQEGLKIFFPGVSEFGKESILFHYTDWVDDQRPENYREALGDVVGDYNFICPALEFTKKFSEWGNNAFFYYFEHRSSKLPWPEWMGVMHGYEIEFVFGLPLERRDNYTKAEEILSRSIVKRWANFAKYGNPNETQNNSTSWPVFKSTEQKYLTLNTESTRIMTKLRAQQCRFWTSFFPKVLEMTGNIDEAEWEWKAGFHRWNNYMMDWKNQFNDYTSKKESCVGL
# Description: Inhibition of BChE by Ellman's method
# Acetylcholinesterase, sequence (P22303 whole entry): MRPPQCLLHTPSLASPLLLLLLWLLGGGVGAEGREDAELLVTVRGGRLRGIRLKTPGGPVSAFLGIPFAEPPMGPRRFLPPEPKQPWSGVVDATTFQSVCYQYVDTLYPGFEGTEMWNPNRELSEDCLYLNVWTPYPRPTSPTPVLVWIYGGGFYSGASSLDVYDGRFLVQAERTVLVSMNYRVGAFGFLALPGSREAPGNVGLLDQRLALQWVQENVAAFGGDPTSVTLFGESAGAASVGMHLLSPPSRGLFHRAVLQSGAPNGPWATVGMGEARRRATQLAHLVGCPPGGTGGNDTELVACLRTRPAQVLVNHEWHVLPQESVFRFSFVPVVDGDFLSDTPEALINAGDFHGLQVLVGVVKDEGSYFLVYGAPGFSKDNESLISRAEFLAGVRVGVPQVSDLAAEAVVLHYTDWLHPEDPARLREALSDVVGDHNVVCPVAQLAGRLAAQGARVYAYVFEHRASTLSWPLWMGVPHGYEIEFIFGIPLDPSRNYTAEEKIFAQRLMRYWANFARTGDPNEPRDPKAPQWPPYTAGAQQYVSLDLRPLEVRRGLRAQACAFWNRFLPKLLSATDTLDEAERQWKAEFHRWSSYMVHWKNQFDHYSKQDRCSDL
SMILES,IC50 [1] [nM],IC50 [2] [nM]
O=C(NCCNc1c2c(nc3ccccc13)CCCC2)c1ccc(F)cc1,0.815,0.0449
O=C(NCCCNc1c2c(nc3ccccc13)CCCC2)c1ccc(F)cc1,0.809,0.0212
O=C(NCCCCNc1c2c(nc3ccccc13)CCCC2)c1ccc(F)cc1,0.784,0.0354
